Data taken from publication PMC10846744, “Cathelicidin peptide analogues inhibit EV71 infection through blocking viral entry and uncoating” (PLOS Pathogens, 2024).
Where no end group is shown, it is not given here.

Tested on: mouse-adapted EV71 (mEV71)
Test: mEV71 infection model in 6-day-old ICR mice
Type: in vivo
Experimental: Fig 7 LL-18 inhibits mEV71 infection in vivo. (A) mEV71 was pre-treated with PBS or LL-18 and used to infect 6-day old ICR mice. The survival rate of mice infected with the mEV71 virus with or without LL-18 was recorded. (B) Mice infected with the mEV71 virus with or without LL-18 pre-treatment were sacrificed 1 day post infection (d.p.i.) and viral titers from brain and muscle tissues were determined. ***, P<0.001. (C) H&E staining of muscle tissue from mice infected with the mEV71 virus with or without LL-18. Blue arrows indicate infiltrated neutrophils. Bar, 20μm.
To prepare the mouse-adapted EV71 strain, the parental EV71 virus was intraperitoneally (i.p.) inoculated into 3-day-old ICR mice. Virus was then isolated from the brain tissue and inoculated into RD cells to amplify virus. […] 1×10^9 PFU/ml mEV71 was then incubated with an equal volume of PBS or LL-18 (20 mg/kg) for one hour, and used to infect 6-day-old ICR newborn mice intraperitoneally. Mice were monitored daily to record survival rate. Meanwhile, brain and muscle tissues were collected 1-day post infection for viral titration or H&E staining.
Supplementary file ppat.1011967.s005.tif: S5 Fig LL-18 inhibits mEV71 infection in vivo. (A) 6-day-old ICR mice were infected with parental EV71 or mouse-adapted virus (mEV71) and the mice survival rate was determined. (B) RD cells infected with mEV71 pre-incubated with PBS or LL-18 for 1 hr were determined for virus titer 24 h.p.i. ***, P<0.001. (C) ICR mice infected with mEV71 or mEV71 pre-incubated with the indicated amount of LL-18 were sacrificed at 1 d.p.i. and viral titers from muscle were determined. ns, not significant; ***, P<0.001. (TIF) Click here for additional data file.

How did the “survival rate of infected suckling mice” value (6-day-old ICR mice, mEV71 pre-incubated 1 hour with LL-18 (20mg/kg), intraperitoneal) turn out when FRKSKEKIGKLFKRIVQRILDFLRNLV [LL-18] was run?
The value was “could increase the sucking mouse survival rate”.

What about the “viral loads of brain and muscle” value (6-day-old ICR mice, mEV71 pre-incubated with LL-18 (20mg/kg), i.p., 1 d.p.i) of the same sequence?
Its value is “significantly decreased the viral loads in both brain and muscle”.

And the “inflammatory cell infiltration in muscle (H&E histology)” value (6-day-old ICR mice, mEV71 with LL-18 (20mg/kg))?
The value was “improved with the administration of LL-18”.

What about the “viral load in muscle, dose finding” value (ICR mice, mEV71 pre-incubated with 20 mg/kg LL-18, 1 d.p.i. (S5C Fig)) of the same sequence?
Its value is “could significantly reduce the viral load”.
